Measured values: ChEMBL document CHEMBL1201862, “PubChem BioAssay data set” (2004)
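Where inhibition never reached the appropriate level, the endpoint shown equals the highest concentration tested. Otherwise, values were interpolated linearly from a five-concentration, 48-hour dose response in 96-well plates. GI50 is the concentration that inhibits growth by half.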 The source made the active and inactive calls. Cut-off read from the data, not from the text of the source: active = GI50 up to about 1.1 µM and inactive = higher.

Legend:
Test in all cases: DTP human tumour cell line panel, 48 h
CAKI-1 = test system: CAKI-1
TK-10 = test system: TK-10
Hs-578T = test system: Hs-578T
SN12C = test system: SN12C
LOX IMVI = test system: LOX IMVI
HT-29 = test system: HT-29
MDA-N = test system: MDA-N
786-0 = test system: 786-0
DU-145 = test system: DU-145
SF-295 = test system: SF-295
UACC-62 = test system: UACC-62
MCF7 = test system: MCF7
EKVX = test system: EKVX
U-251 = test system: U-251
NCI-H460 = test system: NCI-H460
MOLT-4 = test system: MOLT-4
NCI-H226 = test system: NCI-H226
HL-60 = test system: HL-60
SK-OV-3 = test system: SK-OV-3
T47D = test system: T47D

SMILES | GI50 (CAKI-1) | GI50 (TK-10) | GI50 (Hs-578T) | GI50 (SN12C) | GI50 (LOX IMVI) | GI50 (HT-29) | GI50 (MDA-N) | GI50 (786-0) | GI50 (DU-145) | GI50 (SF-295) | GI50 (UACC-62) | GI50 (MCF7) | GI50 (EKVX) | GI50 (U-251) | GI50 (NCI-H460) | GI50 (MOLT-4) | GI50 (NCI-H226) | GI50 (HL-60) | GI50 (SK-OV-3) | GI50 (T47D)
CC(C)[C@@H](C)[C@@]1(C)C[C@@H]1[C@@H](C)[C@H]1CC[C@@H]([C@@H]2CC=C3C[C@@H](O)CC[C@]3(C)C2=O)[C@]1(C)CCO | 12.8 µM (inactive) | 11.5 µM (inactive) | 10.3 µM (inactive) | 12.9 µM (inactive) | 4.57 µM (inactive) | 2.58 µM (inactive) | 13.3 µM (inactive) | 5.53 µM (inactive) | 15.3 µM (inactive) | 9.2 µM (inactive) | 14.6 µM (inactive) | 10.9 µM (inactive) | 12.9 µM (inactive) | 11 µM (inactive) | 1.77 µM (inactive) | 4.17 µM (inactive) | 12.5 µM (inactive) | 2.11 µM (inactive) | – | –
Cc1ccccc1NC(=O)Cc1csc(N/N=C2\C(=O)Nc3ccccc32)n1 | 19.9 µM (inactive) | 53.2 µM (inactive) | 25.8 µM (inactive) | 61.2 µM (inactive) | 64.1 µM (inactive) | 55.6 µM (inactive) | 75.2 µM (inactive) | 43 µM (inactive) | 75 µM (inactive) | 16.7 µM (inactive) | 49.9 µM (inactive) | 50 µM (inactive) | 31.8 µM (inactive) | 1 µM (active) | 35.4 µM (inactive) | 29.7 µM (inactive) | 41.8 µM (inactive) | 22.3 µM (inactive) | – | –
CCn1c(=O)c2ccccc2n2c(=O)c3cc4ccccc4cc3nc12 | > 100 µM (inactive) | > 100 µM (inactive) | – | > 100 µM (inactive) | > 100 µM (inactive) | 64.4 µM (inactive) | – | 37.3 µM (inactive) | – | 28.3 µM (inactive) | > 100 µM (inactive) | – | > 100 µM (inactive) | > 100 µM (inactive) | > 100 µM (inactive) | > 100 µM (inactive) | > 100 µM (inactive) | 91.8 µM (inactive) | 92.7 µM (inactive) | –
CC12CCC(CC1(Cl)Cl)C2 (centres undefined) | > 100 µM (inactive) | > 100 µM (inactive) | > 100 µM (inactive) | > 100 µM (inactive) | > 100 µM (inactive) | > 100 µM (inactive) | – | > 100 µM (inactive) | – | > 100 µM (inactive) | > 100 µM (inactive) | > 100 µM (inactive) | > 100 µM (inactive) | > 100 µM (inactive) | > 100 µM (inactive) | > 100 µM (inactive) | > 100 µM (inactive) | > 100 µM (inactive) | > 100 µM (inactive) | > 100 µM (inactive)
CN(N)C(=O)NCCCl | > 100 µM (inactive) | > 100 µM (inactive) | > 100 µM (inactive) | > 100 µM (inactive) | > 100 µM (inactive) | > 100 µM (inactive) | > 100 µM (inactive) | > 100 µM (inactive) | > 100 µM (inactive) | > 100 µM (inactive) | > 100 µM (inactive) | > 100 µM (inactive) | > 100 µM (inactive) | > 100 µM (inactive) | > 100 µM (inactive) | > 100 µM (inactive) | 0.23 µM (active) | > 100 µM (inactive) | > 100 µM (inactive) | –
CCOC(=O)CCC(NC(=O)c1ccc(CNc2nc3ccccc3nc2C(=O)OCC)cc1)C(=O)OCC (centres undefined) | – | > 100 µM (inactive) | > 100 µM (inactive) | > 100 µM (inactive) | > 100 µM (inactive) | > 100 µM (inactive) | > 100 µM (inactive) | > 100 µM (inactive) | > 100 µM (inactive) | > 100 µM (inactive) | > 100 µM (inactive) | > 100 µM (inactive) | > 100 µM (inactive) | 21.8 µM (inactive) | – | > 100 µM (inactive) | > 100 µM (inactive) | – | > 100 µM (inactive) | –
